Row | Compound | melting point [°C]
1 | O=S(=O)(c1ccc(C#Cc2cnn3c(C(F)F)cc(-c4ccc(C(F)(F)F)cc4)nc23)cc1)N1CCOCC1 [Example 137, 7-Difluoromethyl-3-[4-(morpholine-4-sulfonyl)-phenylethynyl]-5-(4-trifluoromethyl-phenyl)-pyrazolo[1,5-a]pyrimidine] | 227 to 228
2 | Cc1cc(-c2ccc(C(F)(F)F)cc2)nc2c(C#Cc3ccc(S(N)(=O)=O)s3)cnn12 [Example 152, 5-[7-Methyl-5-(4-trifluoromethyl-phenyl)-pyrazolo[1,5-a]pyrimidin-3-ylethynyl]-thiophene-2-sulfonic acid amide] | 214 to 215
3 | Cc1cc(-c2ccc(C(F)(F)F)cc2)nc2c(C#Cc3cccc(S(N)(=O)=O)c3)cnn12 [Example 151, 3-[7-Methyl-5-(4-trifluoromethyl-phenyl)-pyrazolo[1,5-a]pyrimidin-3-ylethynyl]-benzenesulfonamide] | 214 to 216
4 | Cc1cc(-c2cc(C(F)(F)F)n3ncc(C#Cc4cccc(S(=O)(=O)NC(C)(C)CO)c4)c3n2)ccc1Cl [Example 102, 3-[5-(4-Chloro-3-methyl-phenyl)-7-trifluoromethyl-pyrazolo[1,5-a]pyrimidin-3-ylethynyl]-N-(2-hydroxy-1,1-dimethyl-ethyl)-benzenesulfonamide] | 204
5 | FC(F)(F)c1ccc(-c2cc(C(F)(F)F)n3ncc(C#Cc4ccc(C5CC5)nc4)c3n2)cc1 [Example 10, 3-(2-Cyclopropyl-pyridin-5-ylethynyl)-7-trifluoromethyl-5-(4-trifluoromethyl-phenyl)-pyrazolo[1,5-a]pyrimidine] | 138 to 140
6 | Nc1cnc(C#Cc2cnn3c(C(F)(F)F)cc(-c4ccc(C(F)(F)F)cc4)nc23)cn1 [Example 286, 5-[7-Trifluoromethyl-5-(4-trifluoromethyl-phenyl)-pyrazolo[1,5-a]pyrimidin-3-ylethynyl]-pyrazin-2-ylamine] | 200
7 | NS(=O)(=O)c1cc(C#Cc2cnn3c(C(F)F)cc(-c4ccc(C(F)(F)F)cc4)nc23)c(F)cc1F [Example 31, 5-[7-Difluoromethyl-5-(4-trifluoromethyl-phenyl)-pyrazolo[1,5-a]pyrimidin-3-ylethynyl]-2,4-difluoro-benzenesulfonamide] | 256 to 258
8 | CNc1ccc(C#Cc2cnn3c(C(F)(F)F)cc(-c4ccc(C(F)(F)F)cc4)nc23)cn1 [Example 199, Methyl-{5-[7-trifluoromethyl-5-(4-trifluoromethyl-phenyl)-pyrazolo[1,5-a]pyrimidin-3-ylethynyl]-pyridin-2-yl}-amine] | 187
9 | Nc1ncc(C#Cc2ncn3c(C(F)(F)F)cc(-c4ccc(C(F)(F)F)cc4)nc23)cn1 [Example 285, 5-[4-Trifluoromethyl-2-(4-trifluoromethyl-phenyl)-imidazo[1,5-a]pyrimidin-8-ylethynyl]-pyrimidin-2-ylamine] | 294
10 | CCOc1cccc(-c2cc(C(F)F)n3ncc(C#Cc4ccc(S(N)(=O)=O)cc4)c3n2)c1 [Example 187, 4-[7-Difluoromethyl-5-(3-ethoxy-phenyl)-pyrazolo[1,5-a]pyrimidin-3-ylethynyl]-benzenesulfonamide] | 245
11 | Nc1ncc(C#Cc2cnn3c(C(F)(F)F)cc(-c4ccc(C(F)(F)F)cc4)nc23)cc1C(F)(F)F [Example 222, 3-Trifluoromethyl-5-[7-trifluoromethyl-5-(4-trifluoromethyl-phenyl)-pyrazolo[1,5-a]pyrimidin-3-ylethynyl]-pyridin-2-ylamine] | 230
12 | OCc1cccc(C#Cc2cnn3c(C(F)(F)F)cc(-c4ccc(C(F)(F)F)cc4)nc23)c1 [Example 204, {3-[7-Trifluoromethyl-5-(4-trifluoromethyl-phenyl)-pyrazolo[1,5-a]pyrimidin-3-ylethynyl]-phenyl}-methanol] | 177
13 | N#Cc1cc(C#Cc2cnn3c(C(F)(F)F)cc(-c4ccc(C(F)(F)F)cc4)nc23)cnc1N [Example 219, 2-Amino-5-[7-trifluoromethyl-5-(4-trifluoromethyl-phenyl)-pyrazolo[1,5-a]pyrimidin-3-ylethynyl]-nicotinonitrile] | 264
14 | CC(CO)(CO)NS(=O)(=O)c1cncc(C#Cc2cnn3c(C(F)F)cc(-c4ccc(C(F)(F)F)cc4)nc23)c1 [Example 26, 5-[7-Difluoromethyl-5-(4-trifluoromethyl-phenyl)-pyrazolo[1,5-a]pyrimidin-3-ylethynyl]-pyridine-3-sulfonic acid (2-hydroxy-1-hydroxymethyl-1-methyl-ethyl)-amide] | 204 to 206
15 | CC(CO)(CO)NS(=O)(=O)c1cccc(C#Cc2cnn3c(C(F)F)cc(-c4ccc(C(F)(F)F)cc4)nc23)c1 [Example 33, 3-[7-Difluoromethyl-5-(4-trifluoromethyl-phenyl)-pyrazolo[1,5-a]pyrimidin-3-ylethynyl]-N-(2-hydroxy-1-hydroxymethyl-1-methyl-ethyl)-benzene sulfonamide] | 172 to 174
16 | NS(=O)(=O)c1cccc(C#Cc2cnn3c(C(F)(F)F)cc(-c4cccc(C(F)(F)F)c4)nc23)c1 [Example 118, 3-[7-Trifluoromethyl-5-(3-trifluoromethyl-phenyl)-pyrazolo[1,5-a]pyrimidin-3-ylethynyl]-benzenesulfonamide] | 193
17 | CC(C)(O)c1ccc(C#Cc2cnn3c(CO)cc(-c4ccc(Cl)cc4)nc23)cc1 [Example 299, 2-{4-[5-(4-Chloro-phenyl)-7-hydroxymethyl-pyrazolo[1,5-a]pyrimidin-3-ylethynyl]-phenyl}-propan-2-ol] | 118 to 120
18 | NS(=O)(=O)c1cc(C#Cc2cnn3c(C4CC4)cc(-c4ccc(Cl)cc4)nc23)c(F)cc1F [Example 70, 5-[5-(4-Chloro-phenyl)-7-cyclopropyl-pyrazolo[1,5-a]pyrimidin-3-ylethynyl]-2,4-difluoro-benzenesulfonamide] | 272 to 275
19 | COc1ccc(C#Cc2cnn3c(C4CC4)cc(-c4ccc(C(F)(F)F)cc4)nc23)cc1S(=O)(=O)NC(C)(C)CO [Example 81, 5-[7-Cyclopropyl-5-(4-trifluoromethyl-phenyl)-pyrazolo[1,5-a]pyrimidin-3-ylethynyl]-N-(2-hydroxy-1,1-dimethyl-ethyl)-2-methoxy-benzenesulfonamide] | 192 to 195
20 | CC(=O)Nc1ccc(C#Cc2cnn3c(C(F)(F)F)cc(-c4ccc(C(F)(F)F)cc4)nc23)cn1 [Example 225, N-{5-[7-Trifluoromethyl-5-(4-trifluoromethyl-phenyl)-pyrazolo[1,5-a]pyrimidin-3-ylethynyl]-pyridin-2-yl}-acetamide] | 266
21 | NS(=O)(=O)c1ccc(C#Cc2cnn3c(CO)cc(-c4ccc(Cl)cc4)nc23)s1 [Example 156, 5-[5-(4-Chloro-phenyl)-7-hydroxymethyl-pyrazolo[1,5-a]pyrimidin-3-ylethynyl]-thiophene-2-sulfonic acid amide] | 194 to 196
22 | Cc1ccc(C#Cc2cnn3c(C(F)(F)F)cc(-c4ccc(C(F)(F)F)cc4)nc23)cc1S(=O)(=O)NCCO [Example 34, N-(2-Hydroxy-ethyl)-2-methyl-5-[7-trifluoromethyl-5-(4-trifluoromethyl-phenyl)-pyrazolo[1,5-a]pyrimidin-3-ylethynyl]-benzenesulfonamide] | 174 to 175

— US8063048B2, “Acetylenyl-pyrazolo-pyrimidine derivatives” (Hoffmann-La Roche Inc., priority 2005, dated 2011)
